Columns and labels:
[1] = molecular target: T1, Megakaryocyte-associated tyrosine-protein kinase (Homo sapiens) (UniProt P42679); assay: Residual activity of MATK at 0.1 uM by microplate scintillation counting
T1 sequence (whole entry): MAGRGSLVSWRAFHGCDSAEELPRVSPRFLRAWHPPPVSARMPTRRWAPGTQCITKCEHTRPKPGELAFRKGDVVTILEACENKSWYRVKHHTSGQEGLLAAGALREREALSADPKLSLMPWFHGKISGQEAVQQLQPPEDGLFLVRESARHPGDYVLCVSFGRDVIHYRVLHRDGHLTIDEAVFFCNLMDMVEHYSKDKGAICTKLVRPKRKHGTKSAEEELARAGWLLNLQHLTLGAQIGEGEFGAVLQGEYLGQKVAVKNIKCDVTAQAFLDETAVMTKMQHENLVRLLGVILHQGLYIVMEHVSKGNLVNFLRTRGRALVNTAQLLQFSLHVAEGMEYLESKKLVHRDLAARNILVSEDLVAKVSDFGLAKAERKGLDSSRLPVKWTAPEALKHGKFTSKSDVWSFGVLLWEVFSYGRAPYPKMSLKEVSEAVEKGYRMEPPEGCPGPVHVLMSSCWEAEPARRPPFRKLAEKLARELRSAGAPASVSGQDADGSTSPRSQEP

[2] = molecular target: T2, Serine/threonine-protein kinase TBK1 (Homo sapiens) (UniProt Q9UHD2); assay: Residual activity of TBK1 at 10 uM by microplate scintillation counting
T2 sequence (whole entry): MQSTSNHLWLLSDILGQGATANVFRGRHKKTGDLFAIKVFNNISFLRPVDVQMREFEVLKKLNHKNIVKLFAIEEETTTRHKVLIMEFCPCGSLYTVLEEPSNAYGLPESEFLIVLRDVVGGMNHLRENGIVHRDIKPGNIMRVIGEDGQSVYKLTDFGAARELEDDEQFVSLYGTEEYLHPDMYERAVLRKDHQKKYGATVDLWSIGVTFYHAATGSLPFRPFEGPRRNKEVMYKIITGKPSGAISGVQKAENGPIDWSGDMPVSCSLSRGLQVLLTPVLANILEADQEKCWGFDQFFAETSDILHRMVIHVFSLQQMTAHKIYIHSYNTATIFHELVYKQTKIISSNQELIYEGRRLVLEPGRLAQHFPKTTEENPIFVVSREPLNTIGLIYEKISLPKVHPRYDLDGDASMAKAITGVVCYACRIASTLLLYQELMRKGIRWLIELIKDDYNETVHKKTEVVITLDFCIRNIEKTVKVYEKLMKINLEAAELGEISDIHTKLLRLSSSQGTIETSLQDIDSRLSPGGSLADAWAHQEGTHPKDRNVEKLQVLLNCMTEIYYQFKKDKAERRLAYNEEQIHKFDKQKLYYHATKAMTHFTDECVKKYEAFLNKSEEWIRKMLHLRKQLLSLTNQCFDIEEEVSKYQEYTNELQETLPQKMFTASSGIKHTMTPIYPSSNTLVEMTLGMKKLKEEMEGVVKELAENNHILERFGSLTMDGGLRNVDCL

[3] = molecular target: CDK4/Cyclin D3 (Homo sapiens) (UniProt P11802+P30281); assay: Residual activity of CDK4/Cyclin D3 at 1 uM by microplate scintillation counting; assay type: protein-complex assay
[4] = molecular target: T3, Serine/threonine-protein kinase Chk1 (Homo sapiens) (UniProt O14757); assay: Residual activity of CHK1 at 1 uM by microplate scintillation counting
T3 sequence (whole entry): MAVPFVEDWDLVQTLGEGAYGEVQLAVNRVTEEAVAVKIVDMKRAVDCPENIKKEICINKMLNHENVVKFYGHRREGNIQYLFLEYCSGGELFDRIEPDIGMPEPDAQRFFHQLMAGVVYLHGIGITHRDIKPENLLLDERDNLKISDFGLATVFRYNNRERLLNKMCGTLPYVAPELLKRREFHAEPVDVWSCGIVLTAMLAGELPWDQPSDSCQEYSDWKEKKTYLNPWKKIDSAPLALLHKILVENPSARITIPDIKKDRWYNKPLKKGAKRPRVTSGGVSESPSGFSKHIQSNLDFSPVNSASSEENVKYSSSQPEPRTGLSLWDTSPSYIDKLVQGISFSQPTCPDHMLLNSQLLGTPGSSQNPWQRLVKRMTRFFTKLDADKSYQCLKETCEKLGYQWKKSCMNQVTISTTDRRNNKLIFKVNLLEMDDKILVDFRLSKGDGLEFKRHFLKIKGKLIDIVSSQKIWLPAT

[5] = molecular target: Fibroblast growth factor receptor 2 (Homo sapiens) (UniProt P21802); assay: Residual activity of FGFR2 at 1 uM by microplate scintillation counting
Chain of Fibroblast growth factor receptor 2 (Homo sapiens) (P21802 22-821 limits assumed): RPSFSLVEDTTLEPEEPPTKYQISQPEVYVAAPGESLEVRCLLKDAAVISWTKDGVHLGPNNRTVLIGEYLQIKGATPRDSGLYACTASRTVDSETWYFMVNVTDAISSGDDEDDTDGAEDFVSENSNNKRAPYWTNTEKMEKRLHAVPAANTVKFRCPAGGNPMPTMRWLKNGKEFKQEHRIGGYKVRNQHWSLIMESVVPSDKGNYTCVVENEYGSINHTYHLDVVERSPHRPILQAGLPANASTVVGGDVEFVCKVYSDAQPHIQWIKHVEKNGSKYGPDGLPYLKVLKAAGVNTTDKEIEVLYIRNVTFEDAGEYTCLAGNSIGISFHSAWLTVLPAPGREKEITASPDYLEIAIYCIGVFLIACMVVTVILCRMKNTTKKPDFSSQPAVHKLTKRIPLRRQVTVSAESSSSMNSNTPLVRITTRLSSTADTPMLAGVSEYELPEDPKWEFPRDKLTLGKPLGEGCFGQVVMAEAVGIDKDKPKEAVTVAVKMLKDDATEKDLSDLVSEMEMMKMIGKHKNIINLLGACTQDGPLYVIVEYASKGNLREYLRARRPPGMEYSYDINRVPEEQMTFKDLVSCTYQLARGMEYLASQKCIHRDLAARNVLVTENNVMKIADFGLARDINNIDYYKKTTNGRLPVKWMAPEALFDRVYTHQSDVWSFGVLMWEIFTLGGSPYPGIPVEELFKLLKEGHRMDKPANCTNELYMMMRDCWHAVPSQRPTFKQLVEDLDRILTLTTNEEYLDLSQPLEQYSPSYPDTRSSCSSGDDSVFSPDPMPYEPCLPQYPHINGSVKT

[6] = molecular target: Fibroblast growth factor receptor 1 (Homo sapiens) (UniProt P11362); assay: Residual activity of wild type FGF-R1 at 0.1 uM by microplate scintillation counting
Chain of Fibroblast growth factor receptor 1 (Homo sapiens) (P11362 22-822 limits assumed): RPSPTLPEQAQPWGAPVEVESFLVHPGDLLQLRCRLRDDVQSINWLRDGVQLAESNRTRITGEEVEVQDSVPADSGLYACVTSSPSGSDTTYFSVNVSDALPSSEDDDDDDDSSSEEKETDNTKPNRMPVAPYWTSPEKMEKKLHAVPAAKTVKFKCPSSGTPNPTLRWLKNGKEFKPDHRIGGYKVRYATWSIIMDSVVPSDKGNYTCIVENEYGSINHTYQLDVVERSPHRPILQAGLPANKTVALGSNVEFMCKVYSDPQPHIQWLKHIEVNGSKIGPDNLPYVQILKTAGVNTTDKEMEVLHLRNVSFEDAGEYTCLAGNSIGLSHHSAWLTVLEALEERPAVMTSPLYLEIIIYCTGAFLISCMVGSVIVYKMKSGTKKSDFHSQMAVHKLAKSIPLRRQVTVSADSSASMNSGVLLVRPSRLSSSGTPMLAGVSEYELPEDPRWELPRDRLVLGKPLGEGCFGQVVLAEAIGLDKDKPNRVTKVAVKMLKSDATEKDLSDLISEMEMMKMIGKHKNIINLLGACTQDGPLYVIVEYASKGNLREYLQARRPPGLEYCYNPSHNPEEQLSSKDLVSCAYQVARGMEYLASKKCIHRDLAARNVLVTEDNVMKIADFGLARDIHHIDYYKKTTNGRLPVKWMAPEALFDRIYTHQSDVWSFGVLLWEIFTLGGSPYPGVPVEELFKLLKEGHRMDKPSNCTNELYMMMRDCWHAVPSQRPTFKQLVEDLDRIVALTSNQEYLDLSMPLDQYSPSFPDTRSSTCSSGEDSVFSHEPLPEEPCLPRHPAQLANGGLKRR

[7] = molecular target: T4, Cytoplasmic tyrosine-protein kinase BMX (Homo sapiens) (UniProt P51813); assay: Residual activity of BMX at 10 uM by microplate scintillation counting
T4 sequence (whole entry): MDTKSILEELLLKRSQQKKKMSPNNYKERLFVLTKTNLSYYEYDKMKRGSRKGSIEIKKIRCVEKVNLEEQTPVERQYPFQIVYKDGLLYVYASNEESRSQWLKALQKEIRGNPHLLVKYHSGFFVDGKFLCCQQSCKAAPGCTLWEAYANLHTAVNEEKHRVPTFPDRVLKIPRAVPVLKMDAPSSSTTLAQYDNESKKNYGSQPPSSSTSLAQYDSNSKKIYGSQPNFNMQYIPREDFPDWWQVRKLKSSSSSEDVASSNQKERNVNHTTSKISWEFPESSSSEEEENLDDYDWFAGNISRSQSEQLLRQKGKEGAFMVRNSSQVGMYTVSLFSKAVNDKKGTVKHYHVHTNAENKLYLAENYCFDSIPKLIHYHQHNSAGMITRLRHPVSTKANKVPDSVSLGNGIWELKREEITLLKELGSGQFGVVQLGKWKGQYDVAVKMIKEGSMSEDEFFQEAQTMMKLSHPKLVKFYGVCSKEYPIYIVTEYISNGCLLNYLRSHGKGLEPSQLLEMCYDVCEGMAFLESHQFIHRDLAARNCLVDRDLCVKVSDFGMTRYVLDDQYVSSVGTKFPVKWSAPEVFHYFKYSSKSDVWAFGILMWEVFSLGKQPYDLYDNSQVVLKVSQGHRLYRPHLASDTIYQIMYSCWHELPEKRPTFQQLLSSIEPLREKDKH

[8] = molecular target: Death-associated protein kinase 1 (Homo sapiens) (UniProt P53355); assay: Residual activity of DAPK1 at 10 uM by microplate scintillation counting
Chain of Death-associated protein kinase 1 (Homo sapiens) (P53355 whole entry, looked up): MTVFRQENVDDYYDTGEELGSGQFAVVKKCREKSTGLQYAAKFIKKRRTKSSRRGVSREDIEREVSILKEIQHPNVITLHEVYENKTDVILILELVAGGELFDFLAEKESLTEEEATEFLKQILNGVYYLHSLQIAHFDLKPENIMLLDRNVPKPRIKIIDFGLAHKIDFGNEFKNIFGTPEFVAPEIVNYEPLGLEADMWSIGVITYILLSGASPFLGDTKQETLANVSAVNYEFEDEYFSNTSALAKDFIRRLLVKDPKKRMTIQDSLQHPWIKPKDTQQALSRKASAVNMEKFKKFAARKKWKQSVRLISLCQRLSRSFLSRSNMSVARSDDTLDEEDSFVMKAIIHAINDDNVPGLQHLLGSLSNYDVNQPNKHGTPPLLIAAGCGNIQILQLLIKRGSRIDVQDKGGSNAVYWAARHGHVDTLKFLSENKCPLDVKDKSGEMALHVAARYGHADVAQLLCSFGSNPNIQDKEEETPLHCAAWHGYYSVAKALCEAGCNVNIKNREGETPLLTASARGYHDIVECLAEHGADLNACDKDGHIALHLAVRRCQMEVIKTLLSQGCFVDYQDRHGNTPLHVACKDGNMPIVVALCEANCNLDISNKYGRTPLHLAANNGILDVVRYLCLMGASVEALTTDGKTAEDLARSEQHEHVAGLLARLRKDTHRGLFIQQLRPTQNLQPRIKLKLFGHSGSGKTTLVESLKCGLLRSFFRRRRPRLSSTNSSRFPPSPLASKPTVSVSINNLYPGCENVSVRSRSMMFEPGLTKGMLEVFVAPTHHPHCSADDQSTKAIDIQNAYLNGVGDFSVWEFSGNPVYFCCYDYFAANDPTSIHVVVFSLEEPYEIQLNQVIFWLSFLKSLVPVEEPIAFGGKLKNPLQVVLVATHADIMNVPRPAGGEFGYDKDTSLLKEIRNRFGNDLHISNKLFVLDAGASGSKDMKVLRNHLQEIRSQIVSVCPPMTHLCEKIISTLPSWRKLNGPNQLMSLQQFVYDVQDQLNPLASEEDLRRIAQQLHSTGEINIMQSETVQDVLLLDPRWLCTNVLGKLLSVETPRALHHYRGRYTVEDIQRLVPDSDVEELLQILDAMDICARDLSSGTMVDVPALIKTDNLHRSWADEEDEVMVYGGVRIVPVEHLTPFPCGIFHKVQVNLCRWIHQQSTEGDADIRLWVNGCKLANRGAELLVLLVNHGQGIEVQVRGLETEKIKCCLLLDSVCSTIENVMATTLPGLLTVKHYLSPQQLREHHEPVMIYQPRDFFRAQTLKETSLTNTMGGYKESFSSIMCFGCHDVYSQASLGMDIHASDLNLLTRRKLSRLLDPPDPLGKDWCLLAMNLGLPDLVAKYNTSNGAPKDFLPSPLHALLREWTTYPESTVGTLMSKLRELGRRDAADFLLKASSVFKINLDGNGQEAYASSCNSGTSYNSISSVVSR

residual activity [1] [%] | residual activity [2] [%] | residual activity [3] [%] | residual activity [4] [%] | residual activity [5] [%] | residual activity [6] [%] | residual activity [7] [%] | SMILES | residual activity [8] [%]
109 | 143 | 105 | 83 | 107 | 101 | 138 | COc1cc2c(Oc3ccc(-c4nc5ccccc5s4)cc3)ncnc2cc1OCCCN1CCCC1 | 25
96 | 141 | 86 | 102 | 120 | 95 | 44 | COc1cc2c(Oc3ccc(-c4nc5ccccc5s4)cc3F)ncnc2cc1OCCCN1CCN(C)CC1 | 15
107 | 171 | 95 | 103 | 111 | 103 | 156 | COc1cc2c(Oc3ccc(-c4nc5ccccc5s4)cc3)ncnc2cc1OCCCN1CCN(C)CC1 | 24
